From US5977133A, “Pyridone antibiotic with improved safety profile” (priority 1998, dated 1999)
In brackets after ≈: the same amount, converted by molar mass.

Key:
[1] = system: S. aureus (CiproS); assay: In vitro MIC, agar dilution; type: cell-based; conditions: Staphylococcus aureus
[2] = system: S. aureus (CiproR); assay: In vitro MIC, agar dilution; type: cell-based; conditions: Staphylococcus aureus
[3] = system: S. epidermidis (CiproS); assay: In vitro MIC, agar dilution; type: cell-based; conditions: Staphylococcus epidermidis
[4] = system: S. epidermidis (CiproR); assay: In vitro MIC, agar dilution; type: cell-based; conditions: Staphylococcus epidermidis
[5] = system: S. pneumoniae (PenS); assay: In vitro MIC, agar dilution; type: cell-based; conditions: Streptococcus pneumoniae
[6] = system: S. pneumoniae (PenR); assay: In vitro MIC, agar dilution; type: cell-based; conditions: Streptococcus pneumoniae
[7] = system: S. pneumoniae (CiproR); assay: In vitro MIC, agar dilution; type: cell-based; conditions: Streptococcus pneumoniae, read-out: MIC Range
[8] = system: S. pyogenes; assay: In vitro MIC, agar dilution; type: cell-based; conditions: Streptococcus pyogenes
[9] = system: E. faecium (CiproS); assay: In vitro MIC, agar dilution; type: cell-based; conditions: Enterococcus faecium
[10] = system: E. faecium (VanS); assay: In vitro MIC, agar dilution; type: cell-based; conditions: Enterococcus faecium
[11] = system: E. faecalis (VanS); assay: In vitro MIC, agar dilution; type: cell-based; conditions: Enterococcus faecalis
[12] = system: Enterococcus spp. (VanR); assay: In vitro MIC, agar dilution; type: cell-based; conditions: Enterococcus
[13] = system: E. coli; assay: In vitro MIC, agar dilution; type: cell-based; conditions: Escherichia coli, 25 isolates
Summary of the method: (§1)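 Agar dilution plates were inoculated with ~10^4 CFU per spot by replicator, using 1:100 dilutions (1:10 for slow growers) and incubated at 35–37 °C for 20–24 h. MIC is the lowest concentration giving no growth, where slight haze or sparse colonies count as none, judged against a compound-free BHI agar control.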

[14] = system: Salmonella spp.; assay: In vitro MIC, agar dilution; type: cell-based; conditions: 23 isolates
Summary of the method: as §1

[15] = system: Shigella spp.; assay: microbe, parasite or virus in culture; type: cell-based; conditions: read-out: MIC Range
[16] = system: Klebsiella spp.; assay: In vitro MIC, agar dilution; type: cell-based; conditions: Klebsiella
[17] = system: C. freundii; assay: In vitro MIC, agar dilution; type: cell-based; conditions: Citrobacter freundii
[18] = system: P. mirabilis; assay: In vitro MIC, agar dilution; type: cell-based; conditions: Proteus mirabilis
[19] = system: Providencia spp.; assay: In vitro MIC, agar dilution; type: cell-based
[20] = system: Enterobacter spp.; assay: In vitro MIC, agar dilution; type: cell-based; conditions: Enterobacter
[21] = system: P. aeruginosa (CiproS); assay: In vitro MIC, agar dilution; type: cell-based; conditions: Pseudomonas aeruginosa
[22] = system: P. aeruginosa (CiproR); assay: In vitro MIC, agar dilution; type: cell-based
[23] = system: B. fragilis; assay: In vitro MIC, agar dilution; type: cell-based; conditions: Bacteroides fragilis
[24] = system: C. difficile; assay: In vitro MIC, agar dilution; type: cell-based; conditions: Clostridioides difficile
[25] = system: H. influenzae; assay: In vitro MIC, agar dilution; type: cell-based; conditions: Haemophilus influenzae
[26] = system: M. catarrhalis; assay: In vitro MIC, agar dilution; type: cell-based; conditions: Moraxella catarrhalis
[27] = system: Legionella spp.; assay: microbe, parasite or virus in culture; type: cell-based; conditions: Legionella
[28] = system: M. pneumoniae; assay: In vitro MIC, agar dilution; type: cell-based; conditions: Mycoplasmoides pneumoniae, read-out: MIC Range
[29] = system: N. gonorrhoeae; assay: In vitro MIC, agar dilution; type: cell-based; conditions: Neisseria gonorrhoeae
[30] = system: H. pylori; assay: In vitro MIC, agar dilution; type: cell-based; conditions: Helicobacter pylori
[31] = system: M. avium; assay: In vitro MIC, agar dilution; type: cell-based; conditions: Mycobacterium avium
[32] = system: ciprofloxacin resistant staphylococcal strains; assay: In vitro MIC, agar dilution (summary in text); type: cell-based
[33] = system: staphylococcus aureus NTCC 10649; assay: In vivo efficacy, mouse infection (ED50); conditions: Staphylococcus aureus, NTCC10649, in Mus musculus, 168 h
[34] = system: Streptococcus pneumoniae 6303; assay: In vivo efficacy, mouse infection (ED50); conditions: Streptococcus pneumoniae, 6303, in Mus musculus, 168 h
[35] = system: Escherichia coli JUHL; assay: In vivo efficacy, mouse infection (ED50); conditions: Escherichia coli, in Mus musculus, 168 h

O=C(O)c1cn(C2CC2)c2cc(N3CCNCC3)c(F)cc2c1=O [Ciprofloxacin, ciprofloxacin]
MIC50 [1]: 0.25 µg/mL (≈ 0.754 µM)
MIC90 [1]: 0.5 µg/mL (≈ 1.51 µM)
MIC ([1]; read-out: MIC Range): 0.06 to 0.5 µg/mL (≈ 0.181 to 1.51 µM)
MIC50 [2]: 32 µg/mL (≈ 96.6 µM)
MIC90 [2]: 128 µg/mL (≈ 386 µM)
MIC50 [3]: 0.25 µg/mL (≈ 0.754 µM)
MIC90 [3]: 0.25 µg/mL (≈ 0.754 µM)
MIC ([3]; read-out: MIC Range): 0.06 to 0.5 µg/mL (≈ 0.181 to 1.51 µM)
MIC50 [4]: 16 µg/mL (≈ 48.3 µM)
MIC90 [4]: > 128 µg/mL
MIC50 [5]: 2 µg/mL (≈ 6.04 µM)
MIC90 [5]: 4 µg/mL (≈ 12.1 µM)
MIC ([5]; read-out: MIC Range): 1 to 8 µg/mL (≈ 3.02 to 24.1 µM)
MIC50 [6]: 2 µg/mL (≈ 6.04 µM)
MIC90 [6]: 2 µg/mL (≈ 6.04 µM)
MIC ([6]; read-out: MIC Range): 1 to 2 µg/mL (≈ 3.02 to 6.04 µM)
MIC [7]: 4 to 8 µg/mL (≈ 12.1 to 24.1 µM)
MIC50 [8]: 0.5 µg/mL (≈ 1.51 µM)
MIC90 [8]: 1 µg/mL (≈ 3.02 µM)
MIC ([8]; read-out: MIC Range): 0.25 to 4 µg/mL (≈ 0.754 to 12.1 µM)
MIC50 [9]: 2 µg/mL (≈ 6.04 µM)
MIC90 [9]: 4 µg/mL (≈ 12.1 µM)
MIC ([9]; read-out: MIC Range): 2 to 4 µg/mL (≈ 6.04 to 12.1 µM)
MIC50 [10]: 4 µg/mL (≈ 12.1 µM)
MIC90 [10]: 4 µg/mL (≈ 12.1 µM)
MIC ([10]; read-out: MIC Range): 1 to 4 µg/mL (≈ 3.02 to 12.1 µM)
MIC50 [11]: 2 µg/mL (≈ 6.04 µM)
MIC90 [11]: 4 µg/mL (≈ 12.1 µM)
MIC ([11]; read-out: MIC Range): 1 to 4 µg/mL (≈ 3.02 to 12.1 µM)
MIC50 [12]: 4 µg/mL (≈ 12.1 µM)
MIC90 [12]: 4 µg/mL (≈ 12.1 µM)
MIC [13]: 0.008 to 0.03 µg/mL (≈ 0.0241 to 0.0905 µM)
MIC50 ([13]; read-out: MIC50): 0.03 µg/mL (≈ 0.0905 µM)
MIC90 ([13]; read-out: MIC90): 0.03 µg/mL (≈ 0.0905 µM)
MIC [14]: 0.004 to 0.5 µg/mL (≈ 0.0121 to 1.51 µM)
MIC50 ([14]; read-out: MIC50): 0.03 µg/mL (≈ 0.0905 µM)
MIC90 ([14]; read-out: MIC90): 0.03 µg/mL (≈ 0.0905 µM)
MIC [15]: 0.008 to 0.015 µg/mL (≈ 0.0241 to 0.0453 µM)
MIC50 [16]: 0.06 µg/mL (≈ 0.181 µM)
MIC90 [16]: 0.12 µg/mL (≈ 0.362 µM)
MIC ([16]; read-out: MIC Range): 0.004 to 0.5 µg/mL (≈ 0.0121 to 1.51 µM)
MIC50 [17]: 0.015 µg/mL (≈ 0.0453 µM)
MIC90 [17]: 0.12 µg/mL (≈ 0.362 µM)
MIC ([17]; read-out: MIC Range): 0.004 to 0.5 µg/mL (≈ 0.0121 to 1.51 µM)
MIC50 [18]: 0.015 µg/mL (≈ 0.0453 µM)
MIC90 [18]: 0.03 µg/mL (≈ 0.0905 µM)
MIC ([18]; read-out: MIC Range): 0.015 to 0.06 µg/mL (≈ 0.0453 to 0.181 µM)
MIC50 ([19]; Providencia): 0.03 µg/mL (≈ 0.0905 µM)
MIC90 ([19]; Providencia): 0.25 µg/mL (≈ 0.754 µM)
MIC ([19]; Providencia spp., 28 isolates, read-out: MIC Range): 0.015 to 0.25 µg/mL (≈ 0.0453 to 0.754 µM)
MIC50 [20]: 0.015 µg/mL (≈ 0.0453 µM)
MIC90 [20]: 0.03 µg/mL (≈ 0.0905 µM)
MIC ([20]; read-out: MIC Range): 0.008 to 0.12 µg/mL (≈ 0.0241 to 0.362 µM)
MIC50 [21]: 0.12 µg/mL (≈ 0.362 µM)
MIC90 [21]: 0.5 µg/mL (≈ 1.51 µM)
MIC ([21]; read-out: MIC Range): 0.06 to 2 µg/mL (≈ 0.181 to 6.04 µM)
MIC50 ([22]; Pseudomonas aeruginosa): 64 µg/mL (≈ 193 µM)
MIC90 ([22]; Pseudomonas aeruginosa): 128 µg/mL (≈ 386 µM)
MIC90 ([22]; ciprofloxacin resistant P. aeruginosa strains): 128 (g/mL
MIC50 [23]: 8 µg/mL (≈ 24.1 µM)
MIC90 [23]: 16 µg/mL (≈ 48.3 µM)
MIC ([23]; read-out: MIC Range): 4 to 32 µg/mL (≈ 12.1 to 96.6 µM)
MIC50 [24]: 16 µg/mL (≈ 48.3 µM)
MIC90 [24]: 16 µg/mL (≈ 48.3 µM)
MIC ([24]; read-out: MIC Range): 16 µg/mL (≈ 48.3 µM)
MIC50 [25]: 0.015 µg/mL (≈ 0.0453 µM)
MIC90 [25]: 0.015 µg/mL (≈ 0.0453 µM)
MIC ([25]; read-out: MIC Range): 0.008 to 0.015 µg/mL (≈ 0.0241 to 0.0453 µM)
MIC50 [26]: 0.03 µg/mL (≈ 0.0905 µM)
MIC90 [26]: 0.06 µg/mL (≈ 0.181 µM)
MIC ([26]; read-out: MIC Range): 0.008 to 0.06 µg/mL (≈ 0.0241 to 0.181 µM)
MIC50 [27]: 0.25 µg/mL (≈ 0.754 µM)
MIC90 [27]: 0.5 µg/mL (≈ 1.51 µM)
MIC ([27]; read-out: MIC Range): 0.12 to 0.5 µg/mL (≈ 0.362 to 1.51 µM)
MIC [28]: 1 to 2 µg/mL (≈ 3.02 to 6.04 µM)
MIC50 [29]: 0.008 µg/mL (≈ 0.0241 µM)
MIC90 [29]: 0.03 µg/mL (≈ 0.0905 µM)
MIC ([29]; read-out: MIC Range): 0.004 to 0.12 µg/mL (≈ 0.0121 to 0.362 µM)
MIC50 [30]: 0.5 µg/mL (≈ 1.51 µM)
MIC90 [30]: 0.5 µg/mL (≈ 1.51 µM)
MIC ([30]; read-out: MIC Range): 0.12 to 0.5 µg/mL (≈ 0.362 to 1.51 µM)
MIC50 [31]: 16 µg/mL (≈ 48.3 µM)
MIC90 [31]: 32 µg/mL (≈ 96.6 µM)
MIC90 [32]: > 128 µg/mL
ED50 ([33]; po): 18.3 mg/kg
ED50 ([33]; sc): 3.1 mg/kg
ED50 ([34]; po): > 100 mg/kg
ED50 ([34]; sc): > 50 mg/kg
ED50 ([35]; po): 4.1 mg/kg
ED50 ([35]; sc): 1 mg/kg
